# Reference: US9078446B2, “Use of N-(tetrazol-4-yl)- or N-(triazol-3-yl)arylcarboxamides or their salts for controlling unwanted plants in areas of transgenic crop plants being tolerant to HPPD inhibitor herbicides” (BAYER INTELLECTUAL PROPERTY GMBH, priority 2011, dated 2015)
# Experiments:
# Assay type in all cases: in vivo
# [1] = system: non-transformed tobacco plants (Wt); assay: Symptoms due to herbicide application on tobacco plants (damage classes 0-3); details: 25 g Al/ha, one week after application
# Excerpt: (§1) Seeds harvested from TO transformants will be put on standard soil for germination. Three weeks later plantlets (T1) will be transferred to single pots and grown under standard cultivation conditions (PCT/EP2010/070575, published as WO 2011/076889). Two weeks later, plants were sprayed with several N-(tetrazol-4-yl)- or N-(triazol-3-yl)arylcarboxamides as defined above.
# (§2) Tables F1 to F5: Evaluation of the Symptoms Observed Due to the Application of the Herbicides on Transgenic Tobacco Plants, Expressing the Mutant Pseudomonas fluorescens HPPD G336W, the Avena HPPD (AvHPPD), the HPPD from Kordia algicida FMP27 or the HPPD from Blepharisma japonicum (FMP37), Compared to Non-Tranformed Tobacco Plants (“Wt”).
# (§3) The herbicides (with “g Al/ha” meaning “g active ingredient/ha”) were applied on 8 to 10 plants originated from 1 to 3 independent transgenic events per transgene.
# (§4) The symptoms were evaluated and classified as following: • 3=Very strong damage • 2=Strong damage • 1=Light and transient damage • 0=No damage
# [2] = system: soybean plants expressing Pseudomonas fluorescens G336W mutant, FMP 27 and FMP 37; assay: Tolerance to HPPD inhibitors of soybean plants expressing tolerant HPPD enzymes; details: T1 soybean plants; one week after application
# Excerpt: (§5) Genes coding for the selected HPPD were obtained from a member of the group of organisms consisting of Blepharisma japonicum and Kordia algicida and cloned into an appropriate binary vector allowing the integration of DNA into the soybean genome, under the control of the CaMV35S promoter. For the respective cloning procedures, see WO2011076882 (PCT/EP2010/070567), Example 9; for Blepharisma japonicum (FMP37) and WO2011076889 (PCT/EP2010/070575), Example 9 for Kordia algicida (FMP27).
# Between the sequence corresponding to the promoter and the sequence coding for the HPPD a DNA sequence coding for a transit peptide to the chloroplast was inserted, in order to add at the N-terminal extremity of the protein a target signal to allow the localization of the HPPD protein into the plant chloroplast. By using the vectors “pFCO112” (Blepharisma japonicum, WO2011076882), pFCO116 (Korida algicida, WO2011076889), and pFCO117” (see Example B2, above), soybean transformation was achieved as described in Example 10 of WO2011076882 (PCT/EP2010/070567) for Blepharisma japonicum (FMP37) and WO2011076889 (PCT/EP2010/070575) for Kordia algicida (FMP27). Seeds from TO events showing tolerance to tembotrione were harvested.
# T1 Soybean seeds were transferred to single pots and grown under standard cultivation conditions, see WO2011076882.
# Two weeks later, plants will be sprayed with several N-(tetrazol-4-yl)- or N-(triazol-3-yl)arylcarboxamides as defined above.
# [3] = system: transgenic tobacco plants expressing tolerant HPPD enzymes; assay: Tolerance of tobacco plants expressing tolerant HPPD enzymes (all transgenes)
# Excerpt: (§6) Genes coding for the selected HPPD were obtained from a member of the group of organisms consisting of Avena sativa, Pseudomonas fluorescens mutant G336W, Blepharisma japonicum and Kordia algicida and cloned into the binary vector pBin19 allowing the integration of DNA into the tobacco genome, under the control of the CaMV35S promoter. For the cloning procedures, see A2 above for Avena sativa, see B2 above for Pseudomonas fluorescens, mutant G336W, see PCT/EP2010/070567 (published as WO 2011/076882, Example 5; for Blepharisma japonicum (FMP37) and see PCT/EP2010/070575, Example 5 for Kordia algicida (FMP27). Between the sequence corresponding to the promoter and the sequence coding for the HPPD a DNA sequence coding for a transit peptide to the chloroplast was inserted, in order to add at the N-terminal extremity of the protein a target signal to allow the localization of the HPPD protein into the plant chloroplast.
# as §1, §2, §3, §4
# [4] = system: transgenic tobacco plants expressing Avena HPPD (AvHPPD); assay: Symptoms due to herbicide application on transgenic tobacco plants (damage classes 0-3); details: 25 g Al/ha, one week after application
# Excerpt: as §6, §1, §2, §3, §4
# [5] = system: transgenic tobacco plants expressing HPPD from Kordia algicida FMP27; assay: as above; details: 25 g Al/ha, one week after application
# Excerpt: as §6, §1, §2, §3, §4
# [6] = system: transgenic tobacco plants expressing HPPD from Blepharisma japonicum (FMP37); assay: as above; details: 25 g Al/ha, one week after application
# Excerpt: as §6, §1, §2, §3, §4
# [7] = system: transgenic tobacco plants expressing mutant Pseudomonas fluorescens HPPD G336W (PfHPPD-G336W); assay: as above; details: PfHPPD-G336W line 646; 25 g Al/ha; one week after application
# Excerpt: as §6, §1, §2, §3, §4
# [8] = system: cotton plants expressing FMP 27 and FMP 37; assay: Tolerance to HPPD inhibitors of cotton plants expressing tolerant HPPD enzymes; details: T1 cotton plants; one week after application
# Excerpt: as §5, with “the cotton” for “the soybean”, “Example 11;” for “Example 9;”, “Example 11” for “Example 9”
# Between the sequence corresponding to the promoter and the sequence coding for the HPPD a DNA sequence coding for a transit peptide to the chloroplast was inserted, in order to add at the N-terminal extremity of the protein a target signal to allow the localization of the HPPD protein into the plant chloroplast. Cotton transformation was achieved as described in Example 12 of WO2011076882 (PCT/EP2010/070567) for Blepharisma japonicum (FMP37) and WO2011076889 (PCT/EP2010/070575) for Kordia algicida (FMP27). Seeds from T0 events showing tolerance to tembotrione were harvested.
# T1 Cotton seeds were transferred to single pots and grown under standard cultivation conditions, see WO2011076882 (PCT/EP2010/070567) for Blepharisma japonicum (FMP37) and WO2011076889 (PCT/EP2010/070575) for Kordia algicida (FMP27).
# At least 4 weeks later, plants will be sprayed with several N-(tetrazol-4-yl)- or N-(triazol-3-yl)arylcarboxamides as defined above.
compound,measurement,setting,value
CCn1nnnc1NC(=O)c1ccc(C(F)(F)F)c(S(C)(=O)=O)c1C [Compound 5-148],number of plants with Damage 0 (No damage),[1],0
same,number of plants with Damage 1 (Light and transient damage),[1],0
same,number of plants with Damage 2 (Strong damage),[1],0
same,number of plants with Damage 3 (Very strong damage),[1],10
same,tolerance of transgenic plants compared to the wild-type soybean plants,[2],superior tolerance
same,tolerance of the transgenic tobacco plants (symptoms due to application of the herbicide),"[3]; T1 plants sprayed, evaluated one week after application",good tolerance
same,sensitivity of transgenic tobacco plants compared to wild type (wt) plants,"[3]; all tested independent lines, agronomically relevant dose",less sensitive
same,number of plants with Damage 0 (No damage),[4]; AvHPPD line 656,2
same,number of plants with Damage 1 (Light and transient damage),[4]; AvHPPD line 656,1
same,number of plants with Damage 2 (Strong damage),[4]; AvHPPD line 656,3
same,number of plants with Damage 3 (Very strong damage),[4]; AvHPPD line 656,4
same,number of plants with Damage 0 (No damage),[4]; AvHPPD line 659,3
same,number of plants with Damage 1 (Light and transient damage),[4]; AvHPPD line 659,1
same,number of plants with Damage 2 (Strong damage),[4]; AvHPPD line 659,0
same,number of plants with Damage 3 (Very strong damage),[4]; AvHPPD line 659,6
same,number of plants with Damage 0 (No damage),[4]; AvHPPD line 699,1
same,number of plants with Damage 1 (Light and transient damage),[4]; AvHPPD line 699,1
same,number of plants with Damage 2 (Strong damage),[4]; AvHPPD line 699,1
same,number of plants with Damage 3 (Very strong damage),[4]; AvHPPD line 699,7
same,number of plants with Damage 0 (No damage),[5]; FMP27 line 733,3
same,number of plants with Damage 1 (Light and transient damage),[5]; FMP27 line 733,1
same,number of plants with Damage 2 (Strong damage),[5]; FMP27 line 733,4
same,number of plants with Damage 3 (Very strong damage),[5]; FMP27 line 733,2
same,number of plants with Damage 0 (No damage),[5]; FMP27 line 734,4
same,number of plants with Damage 1 (Light and transient damage),[5]; FMP27 line 734,2
same,number of plants with Damage 2 (Strong damage),[5]; FMP27 line 734,0
same,number of plants with Damage 3 (Very strong damage),[5]; FMP27 line 734,4
same,number of plants with Damage 0 (No damage),[5]; FMP27 line 735,0
same,number of plants with Damage 1 (Light and transient damage),[5]; FMP27 line 735,4
same,number of plants with Damage 2 (Strong damage),[5]; FMP27 line 735,4
same,number of plants with Damage 3 (Very strong damage),[5]; FMP27 line 735,2
same,number of plants with Damage 0 (No damage),[6]; FMP37 line 749,2
same,number of plants with Damage 1 (Light and transient damage),[6]; FMP37 line 749,3
same,number of plants with Damage 2 (Strong damage),[6]; FMP37 line 749,2
same,number of plants with Damage 3 (Very strong damage),[6]; FMP37 line 749,3
same,number of plants with Damage 0 (No damage),[6]; FMP37 line 754,2
same,number of plants with Damage 1 (Light and transient damage),[6]; FMP37 line 754,1
same,number of plants with Damage 2 (Strong damage),[6]; FMP37 line 754,5
same,number of plants with Damage 3 (Very strong damage),[6]; FMP37 line 754,2
same,number of plants with Damage 0 (No damage),[6]; FMP37 line 795,1
same,number of plants with Damage 1 (Light and transient damage),[6]; FMP37 line 795,0
same,number of plants with Damage 2 (Strong damage),[6]; FMP37 line 795,6
same,number of plants with Damage 3 (Very strong damage),[6]; FMP37 line 795,3
same,number of plants with Damage 0 (No damage),[7],0
same,number of plants with Damage 1 (Light and transient damage),[7],3
same,number of plants with Damage 2 (Strong damage),[7],2
same,number of plants with Damage 3 (Very strong damage),[7],4
same,tolerance of transgenic plants compared to the wild-type cotton plants,[8],superior tolerance
